Measurements from US8367659B2, “Oxazinyl isoflavonoid compounds, medicaments and use” (Marshall Edwards, Inc., priority 2007, dated 2013).

System: caspase-3/7 activity in A7r5 rat aortic smooth muscle cells
Experiment: Caspase-3/7 activity (apoptosis) in A7r5 rat aortic smooth muscle cells
Assay type: cell-based
Conditions: 10, 50 and 100 μM; FIG. 14
Excerpt: Activation of the caspase cascade is an integral event in the apoptotic pathway. Caspase-3 is one of the important “executioner” caspase enzymes, triggering the cleavage of numerous proteins that lead to the ordered breakdown of cells. The detection of caspase-3 activation is frequently used as a positive marker for apoptosis. A homogeneous luminescent caspase-3/7 assay, the Caspase-Glo™ 3/7 Assay (Promega Corp.) was used to provide an extremely sensitive measure of caspase activation. VSMC were incubated with different concentrations (0 [vehicle alone], 10, 50 and 100 μM) of test compounds. The assay used a proluminescent substrate containing the DEVD sequence recognized by caspase-3 and -7. The caspase-Glo™ 3/7 Reagent produced luminescence that is directly proportional to the amount of caspase-3/7 activity. The luminescence is linear over four orders of magnitude of caspase concentration and over a broad range of cell densities.

Oc1cccc(C2=Cc3ccc(O)cc3OC2)c1 [Compound 37-DHE, 3′,7-dihydroxy-isoflav-3-ene, reference compound]
induction of caspase-3/7 activity, apoptosis: no activity
